Source: US7253306B2, “Pharmaceutical drug candidates and methods for preparation thereof” (Neurochem (International) Limited, priority 2003, dated 2007)

Experiment: Partition coefficient water/toluene
Format: physicochemical

Structure (SMILES): O=S1(=O)CCCO1 [1,3-propane sultone]
- partition coefficient for water/toluene: 1.4
